Molecules are shown by their SMILES. pIC50: −log10 of the molar value.

These results are taken from patent US20090239841A1, “Diaryl Ureas as CB1 Antagonists” (priority 2004, published 2009).

T1 sequence (P21554 whole entry): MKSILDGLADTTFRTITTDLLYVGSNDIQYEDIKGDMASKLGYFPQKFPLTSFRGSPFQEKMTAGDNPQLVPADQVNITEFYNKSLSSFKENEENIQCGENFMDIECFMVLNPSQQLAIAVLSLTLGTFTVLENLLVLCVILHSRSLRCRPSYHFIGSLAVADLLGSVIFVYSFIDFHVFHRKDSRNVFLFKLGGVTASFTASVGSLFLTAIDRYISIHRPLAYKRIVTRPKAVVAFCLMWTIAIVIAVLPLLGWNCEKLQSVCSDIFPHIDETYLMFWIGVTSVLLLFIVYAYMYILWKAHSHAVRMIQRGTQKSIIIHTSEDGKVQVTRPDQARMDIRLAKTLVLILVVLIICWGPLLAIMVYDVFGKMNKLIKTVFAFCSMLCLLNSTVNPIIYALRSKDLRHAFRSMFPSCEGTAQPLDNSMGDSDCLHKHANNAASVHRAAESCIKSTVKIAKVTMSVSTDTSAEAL

The first experiment addresses T1, hCB1 (Homo sapiens, UniProt P21554).
T1 construct: made in house; host or cells: Sf9 insect cells (baculovirus), P2 membranes
Put plainly: Agonist-induced GTP binding (GTPγ35S) assay at CB1, Example 8. Format: biochemical. The following applies: IC50 at CB1, determined as described in Example 8; read-out: IC50. The source says: As noted above, compounds provided herein are CB1 antagonists. Certain such compounds are non-competitive CB1 antagonists. In addition, or alternatively, certain compounds provided herein display CB1 specificity. CB1 antagonist activity may be confirmed using an agonist-induced GTP binding assay, such as the assay described in Example 8. Such assays employ a CB1-containing cell membrane preparation (e.g., a preparation of membranes of insect cells that recombinantly express CB1) to determine the effect of a test compound on CB1 agonist-induced GTP binding to CB1. Briefly, a first cell membrane preparation comprising CB1 is contacted with: (i) labeled GTP; (ii) a CB1 agonist; and (iii) a test compound to yield a test membrane preparation. Simultaneously, or in either order, a second cell membrane preparation comprising CB1 is contacted with: (i) labeled GTP; and (ii) a CB1 agonist to yield a control membrane preparation. The labeled GTP is preferably GTPγ^35S; a representative CB1 agonist is CP55,940. Such contact is performed under conditions that are suitable for GTP binding to CB1, such as the conditions described in Example 8. The concentrations of labeled GTP and CB1 agonist used are generally concentrations that are sufficient to result in a detectable increase in the amount of labeled GTP bound to the membrane preparation in the presence of CB1 agonist. Such concentrations may be determined by routine experimentation; representative suitable concentrations are provided in Example 8. Generally, a range of test compound concentrations is used (e.g., ranging from 10^−10M to 10^−5M).
After sufficient contact (e.g., incubation) to allow GTP binding to the membrane preparations, a signal that corresponds to (represents) the amount of bound, labeled GTP is detected (typically, unbound labeled GTP is first removed via a washing step). In other words, simultaneously or in either order: (i) a test signal that represents an amount of bound, labeled GTP in the test membrane preparation is detected; and (ii) a control signal that represents an amount of bound, labeled GTP in the control membrane preparation is detected. The nature of the signal detected is determined by the type of label used. For example, if the GTP is radioactively labeled, the signal detected is radioactive decay (e.g., via liquid scintillation spectrometry). The CB1 antagonist activity of the test compound is then determined by comparing the test signal with the control signal.
This assay can also be used to detect partial agonism mediated by antagonist compounds. A compound being analyzed in this assay is referred to herein as a “test compound.” Agonist-stimulated GTP binding activity is measured as follows: Four independent baculoviral stocks (one directing the expression of hCB1 and three directing the expression of each of the three subunits of a heterotrimeric G-protein) are used to infect a culture of Sf9 cells as described in Example 5.
Agonist-stimulated GTP binding on purified membranes (as described in Example 6) is initially assessed using the cannabinoid agonist CP55,940 to ascertain that the receptor/G-protein-alpha-beta-gamma combination(s) yield a functional response as measured by GTP binding.
P2 membranes are resuspended by Dounce homogenization (tight pestle) in GTP binding assay buffer (50 mM Tris pH 7.4, 120 mM NaCl, 5 mM MgCl2, 2 mM EGTA, 0.1% BSA, 0.1 mM bacitracin, 10 KIU/mL aprotinin, 5 μM GDP) and added to reaction tubes at a concentration of 10 μg protein/reaction tube. After adding increasing doses of the agonist CP55,940 at concentrations ranging from 10^−12 M to 10^−6 M, reactions are initiated by the addition of […] GTPγ^35S. In competition experiments, non-radiolabeled test compounds are added to separate assays at concentrations ranging from 10^−10 M to 10^−5 M along with 1 nM CP55,940 to yield a final volume of 0.25 mL. […]
The pIC50 is the negative decadic logarithm of the IC50, by convention in mol/L. As for `CCOC(=O)c1ccc(NC(=O)Nc2cccc(C(C)=O)c2)cc1` [Compound 512, ethyl 4-({[(3-acetylphenyl)amino]carbonyl}amino)benzoate], the negative logarithm of the IC50 (pIC50) was more than 5.70.

For the molecule `CCOc1ccc(NC(=O)Nc2cccc(Cl)c2)cc1` [Compound 389, 1-(3-chlorophenyl)-3-(4-ethoxyphenyl)urea], the pIC50 was more than 5.70.

`CCCc1ccc(NC(=O)Nc2ccc(C(C)=O)cc2)cc1` [Compound 352, 1-(4-acetylphenyl)-3-(4-propylphenyl)urea]: the pIC50 was more than 5.70.

`CCCOc1ccc(NC(=O)Nc2ccc([N+](=O)[O-])cc2)cc1` [Compound 562, 1-(4-nitrophenyl)-3-(4-propoxyphenyl)urea]: the pIC50 was more than 5.70.

Take `Cc1ccc(F)cc1NC(=O)Nc1cccc(OC(F)F)c1` [Compound 700, 1-[3-(difluoromethoxy)phenyl]-3-(5-fluoro-2-methylphenyl)urea]: the pIC50 was more than 5.70.

Regarding `CCOc1ccc(NC(=O)Nc2cccc(C(C)=O)c2)cc1` [Compound 412, 1-(3-acetylphenyl)-3-(4-ethoxyphenyl)urea], the pIC50 was more than 5.70.

On to `CCOC(=O)c1cccc(NC(=O)Nc2ccc(C(C)C)cc2)c1` [Compound 649, ethyl 3-({[(4-isopropylphenyl)amino]carbonyl}amino)benzoate], for which the pIC50 was more than 5.70.

`CCc1ccc(NC(=O)Nc2ccc(C#N)cn2)cc1` [Compound 636, 1-(5-cyanopyridin-2-yl)-3-(4-ethylphenyl)urea]: the pIC50 was more than 5.70.

As to `Cc1ccc(NC(=O)Nc2ccc(OC(C)C)cc2)cc1` [Compound 366, 1-(4-isopropoxyphenyl)-3-(4-methylphenyl)urea], the negative-log IC50 (pIC50) is more than 5.70.

As for `Cc1cccc(NC(=O)Nc2ccc(-n3cnc(Cl)c3Cl)cc2)c1` [Compound 319, 1-[4-(4,5-dichloro-1H-imidazol-1-yl)phenyl]-3-(3-methylphenyl)urea], the pIC50 was more than 5.70.

In the case of `CCOC(=O)c1cccc(NC(=O)Nc2ccc(CC#N)cc2)c1` [Compound 714, ethyl 3-[({[4-(cyanomethyl)phenyl]amino}carbonyl)amino)benzoate], the negative-log IC50 (pIC50) was more than 5.70.

As for `CCOc1ccc(NC(=O)Nc2ccc(Cl)nc2)cc1` [Compound 629, 1-(6-chloropyridin-3-yl)-3-(4-ethoxyphenyl)urea], the negative-log IC50 (pIC50) was more than 5.70.

`Cc1ccc(NC(=O)Nc2cccc(F)c2)cc1F` [Compound 429, 1-(3-fluoro-4-methylphenyl)-3-(3-fluorophenyl)urea]: the negative-log IC50 (pIC50) is more than 5.70.

As for `Cc1ccc(NC(=O)Nc2ccc(OC(F)F)cc2)cc1` [Compound 308, N-[4-(difluoromethoxy)phenyl]-N′-(4-methylphenyl)urea], the pIC50 was more than 5.70.

For the molecule `CCOc1ccc(NC(=O)Nc2cccc(F)c2)cc1` [Compound 357, 1-(4-ethoxyphenyl)-3-(3-fluorophenyl)urea], the negative logarithm of the IC50 (pIC50) is more than 5.70.

For `COCc1ccc(NC(=O)Nc2ccc([N+](=O)[O-])cc2)cc1` [Compound 561, 1-[4-(methoxymethyl)phenyl]-3-(4-nitrophenyl)urea], the pIC50 was more than 5.70.

For the molecule `CCOC(=O)c1ccc(NC(=O)Nc2ccc(OCC#N)cc2)cc1` [Compound 719, ethyl 4-[({[4-(cyanomethoxy)phenyl]amino}carbonyl)amino]benzoate], the pIC50 was more than 5.70.

Take `CCOC(=O)c1cccc(NC(=O)Nc2ccc(C)c(F)c2)c1` [Compound 766, ethyl 3-({[(3-fluoro-4-methylphenyl)amino]carbonyl}amino)benzoate]: the pIC50 is more than 5.70.

Consider `Cc1ccc(NC(=O)Nc2ccc(C)c(F)c2)cc1F` [Compound 772, 1,3-bis(3-fluoro-4-methylphenyl)urea], for which the negative-log IC50 (pIC50) was more than 5.70.

As for `CCOc1cccc(NC(=O)Nc2ccc(F)c(C)c2)c1` [Compound 682, 1-(3-ethoxyphenyl)-3-(4-fluoro-3-methylphenyl)urea], the pIC50 was more than 5.70.

As to `CC(=O)c1ccc(NC(=O)Nc2ccc(F)c(C)c2)cc1` [Compound 451, 1-(4-acetylphenyl)-3-(4-fluoro-3-methylphenyl)urea], the pIC50 is more than 5.70.

As for `CCCc1ccc(NC(=O)Nc2ccc(C(=O)OCC)cc2)cc1` [Compound 653, ethyl 4-({[(4-propylphenyl)amino]carbonyl}amino)benzoate], the negative-log IC50 (pIC50) is more than 5.70.

As to `O=C(Nc1ccc(OC(F)F)cc1)Nc1cccc([N+](=O)[O-])c1` [Compound 568, 1-[4-(difluoromethoxy)phenyl]-3-(3-nitrophenyl)urea], the negative logarithm of the IC50 (pIC50) was more than 5.70.

Consider `CC(C)Oc1cccc(NC(=O)Nc2ccc(Cl)cc2)c1` [Compound 401, 1-(4-chlorophenyl)-3-(3-isopropoxyphenyl)urea], for which the negative-log IC50 (pIC50) is more than 5.70.

On to `CCc1cccc(NC(=O)Nc2ccc(C)cc2)c1` [Compound 324, 1-(3-ethylphenyl)-3-(4-methylphenyl)urea], for which the pIC50 was more than 5.70.

Regarding `COCc1ccc(NC(=O)Nc2ccc(OC)cc2)cc1` [Compound 545, 1-[4-(methoxymethyl)phenyl]-3-(4-methoxyphenyl)urea], the pIC50 is more than 5.70.

The same experiment, now with this note: Table I; IC50 at CB1, GTP binding with 1 nM CP55,940; read-out: IC50.
With `CCc1ccc(NC(=O)Nc2cccc(OC(C)C)c2)cc1` [Compound 23, N-(4-ethylphenyl)-N′-(3-isopropoxyphenyl)urea], the pIC50 is more than 5.70.

Still in this experiment, the particulars now being: Table II; IC50 at CB1, GTP binding with 1 nM CP55,940; read-out: IC50.
As for `CCCc1ccc(NC(=O)Nc2cccc(C)c2)cc1` [Compound 154, N-(3-methylphenyl)-N′-(4-propylphenyl)urea], the pIC50 was more than 5.70.

As for `O=C(Nc1ccc(OC(F)F)cc1)Nc1ccc(N2CCOCC2)c(Cl)c1` [Compound 81, N-(3-chloro-4-morpholin-4-ylphenyl)-N′-[4-(difluoromethoxy)phenyl]urea], the negative logarithm of the IC50 (pIC50) is more than 5.70.

On to `CCOc1ccc(NC(=O)Nc2cccc(Cl)c2)cc1` [Compound 236, N-(3-chlorophenyl)-N′-(4-ethoxyphenyl)urea], for which the pIC50 was more than 5.70.

`CCc1cccc(NC(=O)Nc2ccc(COC)cc2)c1` [Compound 239, N-(3-ethylphenyl)-N′-[4-(methoxymethyl)phenyl]urea]: the pIC50 is more than 5.70.

With `CCCOc1ccc(NC(=O)Nc2cccc(C#N)c2)cc1` [Compound 273, N-(3-cyanophenyl)-N′-(4-propoxyphenyl)urea], the negative logarithm of the IC50 (pIC50) is more than 5.70.

In the case of `Cc1ccc(NC(=O)Nc2ccc(C(C)C)cc2)cc1` [Compound 157, N-(4-isopropylphenyl)-N′-(4-methylphenyl)urea], the pIC50 is more than 5.70.

With `Cc1cc(NC(=O)Nc2ccc(OC(F)F)cc2)nc(C)n1` [Compound 78, N-[4-(difluoromethoxy)phenyl]-N′-(2,6-dimethylpyrimidin-4-yl)urea], the pIC50 was more than 5.70.

`O=C(Nc1ccc(OC(F)F)cc1)Nc1cccc(-c2cncnc2)c1` [Compound 64, N-[4-(difluoromethoxy)phenyl]-N′-(3-pyrimidin-5-ylphenyl)urea]: the negative logarithm of the IC50 (pIC50) was more than 5.70.

In the case of `O=C(Nc1ccccc1)Nc1cccc(OC(F)F)c1` [Compound 225, N-[3-(difluoromethoxy)phenyl]-N′-phenylurea], the pIC50 is more than 5.70.

As for `CCc1ccc(NC(=O)Nc2cccc(Cl)c2)cc1` [Compound 180, N-(3-chlorophenyl)-N′-(4-ethylphenyl)urea], the negative logarithm of the IC50 (pIC50) was more than 5.70.

On to `CCOc1ccc(NC(=O)Nc2cccc(F)c2)cc1` [Compound 205, N-(4-ethoxyphenyl)-N′-(3-fluorophenyl)urea], for which the pIC50 was more than 5.70.

Regarding `COc1ccc(-c2cccc(NC(=O)Nc3ccc(OC(F)F)cc3)c2)cn1` [Compound 72], the pIC50 was more than 5.70.
